Experimental data from US20240122865A1, “Methods of Protecting RNA” (Pfizer Inc., priority 2021, published 2024).
Where “and” joins values, the source holds several entries; their conditions need not be identical. Equal values may be shown once.

System: Chi18 mRNA construct
Test: Size Exclusion Base Hydrolysis Degradation Assay, Chi18
Type: biochemical, Trichoderma atroviride
Conditions: for T0 R1 peak area at 250 nm: Chi18 0.1 mg/mL, 25 mM amino acid, 50 mM CAPS, T=0, replicate 1; for T2 Avg, peak area as percentage of T=0 / T2 R1 peak area at 250 nm / T10 Avg, peak area as percentage of T=0 / T10 R1 peak area at 250 nm / T24 Avg, peak area as percentage of T=0 / T24 R1 peak area at 250 nm / T0 Avg, peak area as percentage of T=0: Chi18, 25 mM amino acid; for T2 Avg, peak area as percentage of T=0 / T2 R1 peak area at 250 nm / T10 Avg, peak area as percentage of T=0 / T10 R1 peak area at 250 nm / T24 Avg, peak area as percentage of T=0 / T24 R1 peak area at 250 nm: 50 mM CAPS pH 11, room temperature; for T2 Avg, peak area as percentage of T=0 / T2 R1 peak area at 250 nm: 2 hrs; for T2 R1 peak area at 250 nm / T10 R1 peak area at 250 nm / T24 R1 peak area at 250 nm: replicate 1; for T10 Avg, peak area as percentage of T=0 / T10 R1 peak area at 250 nm: 10 hrs; for T24 Avg, peak area as percentage of T=0 / T24 R1 peak area at 250 nm: 24 hrs; for T0 Avg, peak area as percentage of T=0: T=0 (reference)
Protocol: Basic assay procedure: RNA samples were diluted to 1.0 mg/mL in DNAase/RNAase free water. Amino acids were dissolved in water to a stock solution of 100 mM and a solution of 500 mM CAPS pH 11 was used. The two mRNA constructs tested were FgenL and Chi18. Each individual sample volume was 50 μL. To determine the amount of 1 M NaOH needed to adjust the final pH to 11.0 after the addition of all sample components, the sample volume was increased 100 fold (5 mL), the volume of 1 M NaOH recorded and this value was translated back down to the 50 μL sample volume.
The mRNA and amino acid were allowed to incubate for one hour prior to the addition of CAPS pH 11. All steps of the assay were conducted at room temperature.
Degradation reaction: After the CAPS addition, the samples were injected onto the Waters H-Class UPLC system to record the first timepoint, T=O. This resulting chromatogram was processed by integrating the area of absorbance at 250 nm for the mRNA construct. Immediately following this timepoint, the pH was adjusted to 11. Subsequent time points (2 hrs, 10 hrs, and 24 hrs) recorded the Absorbance Units (peak area) at 250 nm as a percentage of the peak area determined at T=O. Integration of the chromatogram for subsequent timepoints was conducted by analyzing the area of absorbance at 250 nm contained within the same time window in which the peak eluted in T=0 for the 100% intact mRNA.

SMILES | T0 R1 peak area at 250 nm | T2 Avg, peak area as percentage of T=0 | T2 R1 peak area at 250 nm | T10 Avg, peak area as percentage of T=0 | T10 R1 peak area at 250 nm | T24 Avg, peak area as percentage of T=0 | T24 R1 peak area at 250 nm | T0 Avg, peak area as percentage of T=0 | T0 R1 peak area at 250 nm (listed as Cys) | T2 R1 peak area at 250 nm (listed as Cys) | T2 Avg, peak area as percentage of T=0 (listed as Cys)
C[C@H](N)C(=O)O [Alanine] | 19606 | 71.6% | 13211 | 18.1% | 2730 | 0.0% | 0 | 100.0% | – | – | –
N=C(N)NCCC[C@H](N)C(=O)O [Arginine] | 20698 | 76.7% | 15655 | 0.0% | 0 | 0.0% | 0 | 100.0% | – | – | –
NC(=O)C[C@H](N)C(=O)O [Asparagine] | 25494 | 62.7% | 12115 | 0.0% | 0 | 0.0% | 0 | 100.0% | – | – | –
N[C@@H](CC(=O)O)C(=O)O [Aspartic acid] | 11079 | 69.4% | 7643 | 0.0% | 0 | 0.0% | 0 | 100.0% | – | – | –
N[C@@H](CS)C(=O)O [Cysteine] | – | – | – | 0.0% | 0 | 0.0% | 0 | 100.0% | 39458 and 20358 | 25387 and 14715 | 60.4% and 61.4%
NC(=O)CC[C@H](N)C(=O)O [Glutamine] | 25301 | 51.1% | 10030 | 0.0% | 0 | 0.0% | 0 | 100.0% | – | – | –
N[C@@H](CCC(=O)N[C@@H](CS)C(=O)NCC(=O)O)C(=O)O [Glutathione] | 13157 | 48.7% | 7747 | 0.0% | 0 | 0.0% | 0 | 100.0% | – | – | –
NCC(=O)O [Glycine] | 32571 | 69.6% | 21950 | 0.0% | 0 | 0.0% | 0 | 100.0% | – | – | –
N[C@@H](Cc1c[nH]cn1)C(=O)O [Histidine] | 27170 | 152.8% | 14612 | 2.8% | 1391 | 0.0% | 0 | 100.0% | – | – | –
O=C(O)[C@@H]1C[C@@H](O)CN1 [Hydroxyproline] | 13659 | 76.2% | 8540 | 34.2% | 3280 | 0.0% | 0 | 100.0% | – | – | –
CC[C@H](C)[C@H](N)C(=O)O [Isoleucine] | 15361 | 63.2% | 7533 | 33.8% | 4699 | 0.0% | 0 | 100.0% | – | – | –
CC(C)C[C@H](N)C(=O)O [Leucine] | 43979 | 60.6% | 23370 | 26.2% | 10474 | 0.0% | 0 | 100.0% | – | – | –
NCCCC[C@H](N)C(=O)O [Lysine] | 24122 | 0.0% | 0 | 0.0% | 0 | 0.0% | 0 | 100.0% | – | – | –
CSCC[C@H](N)C(=O)O [Methionine] | 17259 | 63.5% | 8392 | 40.1% | 6837 | 0.0% | 0 | 100.0% | – | – | –
N[C@@H](Cc1ccccc1)C(=O)O [Phenylalanine] | 30537 | 72.1% | 22175 | 16.3% | 3615 | 0.0% | 0 | 100.0% | – | – | –
O=C(O)[C@@H]1CCCN1 [Proline] | 12033 | 72.0% | 7330 | 28.5% | 2712 | 0.0% | 0 | 100.0% | – | – | –
N[C@@H](CO)C(=O)O [Serine] | 31778 | 150.4% | 19639 | 0.0% | 0 | 0.0% | 0 | 100.0% | – | – | –
C[C@@H](O)[C@H](N)C(=O)O [Threonine] | 39202 | 74.6% | 28759 | 26.0% | 10963 | 0.0% | 0 | 100.0% | – | – | –
